Each molecule was assayed against SIK2 (Homo sapiens, UniProt Q9H0K1) (assay: SIK2 Enzymatic Assay High Version 2 (High ATP)). Details: not given.
Assay type: biochemical
How it was run: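 At room temperature, enzyme (6 nM, 2× final) was preincubated with compound for 30 min, then 6 mM ATP and 400 μM HDAC5tide (both 2× final) were added for 2 h. ADP formed was measured by ADP-Glo Max (2 h reagent, 1 h detection) using luminescence.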

Chain of SIK2 (Q9H0K1 whole entry, species assumed): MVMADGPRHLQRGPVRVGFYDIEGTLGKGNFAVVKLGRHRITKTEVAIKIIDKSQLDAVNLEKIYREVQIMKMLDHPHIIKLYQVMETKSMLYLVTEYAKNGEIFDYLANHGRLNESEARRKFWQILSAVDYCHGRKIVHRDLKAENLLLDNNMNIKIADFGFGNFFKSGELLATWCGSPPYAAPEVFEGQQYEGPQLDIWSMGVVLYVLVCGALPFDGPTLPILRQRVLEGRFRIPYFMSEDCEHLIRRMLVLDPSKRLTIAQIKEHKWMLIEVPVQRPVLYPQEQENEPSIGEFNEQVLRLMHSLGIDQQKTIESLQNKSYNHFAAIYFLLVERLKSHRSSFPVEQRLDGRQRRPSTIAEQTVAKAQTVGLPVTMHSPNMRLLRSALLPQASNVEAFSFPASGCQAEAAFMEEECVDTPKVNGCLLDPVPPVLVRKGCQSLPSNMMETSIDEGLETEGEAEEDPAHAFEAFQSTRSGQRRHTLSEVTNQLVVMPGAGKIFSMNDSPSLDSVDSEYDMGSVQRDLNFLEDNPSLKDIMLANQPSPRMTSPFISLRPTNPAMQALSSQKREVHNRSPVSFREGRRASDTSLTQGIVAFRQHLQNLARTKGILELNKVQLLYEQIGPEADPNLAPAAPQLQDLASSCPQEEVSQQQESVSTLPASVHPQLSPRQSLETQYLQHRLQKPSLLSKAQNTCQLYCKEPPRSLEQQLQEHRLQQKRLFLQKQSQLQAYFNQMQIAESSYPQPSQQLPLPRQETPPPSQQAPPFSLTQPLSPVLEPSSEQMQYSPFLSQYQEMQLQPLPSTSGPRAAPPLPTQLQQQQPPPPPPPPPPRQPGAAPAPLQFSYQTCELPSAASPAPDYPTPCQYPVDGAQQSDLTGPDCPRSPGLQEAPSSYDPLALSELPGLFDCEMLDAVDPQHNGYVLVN

Row | Structure (SMILES) | IC50
1 | Cc1cnc(Nc2cc3cc(-c4cc(C)ncc4O[C@H]4C[C@H]5COC[C@@H](C4)N5)ccn3n2)cn1 [Example 381, 5-[2-methyl-5-[[(1S,5R,7s)-3-oxa-9-azabicyclo[3.3.1]nonan-7-yl]oxy]-4-pyridyl]-N-(5-methylpyrazin-2-yl)pyrazolo[1,5-a]pyridin-2-amine] | < 0.000847 µM
2 | Cc1cc(-c2ccn3nc(Nc4cc(C)nc(C)n4)cc3c2)c(OCC2CNS(=O)(=O)N2)cn1 (racemic) [Example 352, (rac-)-N-(2,6-dimethylpyrimidin-4-yl)-5-[5-[(1,1-dioxo-1,2,5-thiadiazolidin-3-yl)methoxy]-2-methyl-4-pyridyl]pyrazolo[1,5-a]pyridin-2-amine] | 0.0031 µM
3 | Cc1cc(-c2ccn3nc(Nc4cn(C)nc4F)cc3c2)c(O[C@H]2C[C@H]3COC[C@@H](C2)N3C)cn1 [Example 119, N-(3-fluoro-1-methyl-1H-pyrazol-4-yl)-5-(2-methyl-5-(((1R,5S,7s)-9-methyl-3-oxa-9-azabicyclo[3.3.1]nonan-7-yl)oxy)pyridin-4-yl)pyrazolo[1,5-a]pyridin-2-amine] | 0.00127 µM
4 | CCN1CC[C@@H]1COc1cnc(C)cc1-c1ccn2nc(NC(=O)C3CC3)cc2c1 [Example 451, N-[5-[5-[[(2R)-1-ethylazetidin-2-yl]methoxy]-2-methyl-4-pyridyl]pyrazolo[1,5-a]pyridin-2-yl]cyclopropanecarboxamide] | 0.0182 µM
5 | CN1[C@@H]2COC[C@H]1C[C@@H](Oc1ccc(C(F)F)cc1-c1ccn3nc(NC(=O)C4CC4)cc3c1)C2 [Example 482, N-[5-[5-(difluoromethyl)-2-[[(1R,5S)-9-methyl-3-oxa-9-azabicyclo[3.3.1]nonan-7-yl]oxy]phenyl]pyrazolo[1,5-a]pyridin-2-yl]cyclopropanecarboxamide] | 0.00424 µM
6 | Cc1cc(-c2ccn3nc(NC(=O)C4CC4)cc3c2)c(O[C@@H]2[C@@H]3CO[C@H]2CN3)cn1 [Example 165, N-(5-(5-(((1S,4S,7R)-2-oxa-5-azabicyclo[2.2.1]heptan-7-yl)oxy)-2-methylpyridin-4-yl)pyrazolo[1,5-a]pyridin-2-yl)cyclopropanecarboxamide] | 0.00823 µM
7 | Cc1cc(-c2ccn3nc(Nc4cnn(C(F)F)c4)cc3c2)c(O[C@H]2C[C@H]3COC[C@@H](C2)N3)cn1 [Example 117, 5-(5-(((1R,5S,7s)-3-oxa-9-azabicyclo[3.3.1]nonan-7-yl)oxy)-2-methylpyridin-4-yl)-N-(1-(difluoromethyl)-1H-pyrazol-4-yl)pyrazolo[1,5-a]pyridin-2-amine] | 0.000904 µM
8 | Cc1cnc(Nc2cc3cc(-c4cc(C)ncc4O[C@H]4C[C@H]5COC[C@@H](C4)N5C)ccn3n2)cn1 [Example 416, 5-[2-methyl-5-[[(1S,5R,7s)-9-methyl-3-oxa-9-azabicyclo[3.3.1]nonan-7-yl]oxy]-4-pyridyl]-N-(5-methylpyrazin-2-yl)pyrazolo[1,5-a]pyridin-2-amine] | < 0.000847 µM
9 | Cc1cc(-c2ccn3nc(Nc4cccnn4)cc3c2)c(O[C@H]2C[C@H]3CC[C@@H](C2)N3C)cn1 [Example 514, 5-[2-methyl-5-[[(1S,5R)-8-methyl-8-azabicyclo[3.2.1]octan-3-yl]oxy]-4-pyridyl]-N-pyridazin-3-yl-pyrazolo[1,5-a]pyridin-2-amine] | 0.0303 µM
10 | Cc1cc(-c2ccn3nc(Nc4cc(C)nc(C)n4)cc3c2)c(OC[C@H]2CC[C@H](O)CO2)cn1 (single isomer, unassigned) [Example 347, (3*S,6*S)-6-[[4-[2-[(2,6-dimethylpyrimidin-4-yl)amino]pyrazolo[1,5-a]pyridin-5-yl]-6-methyl-3-pyridyl]oxymethyl]tetrahydropyran-3-ol] | 0.0352 µM

Same assay, conditions: enzyme 6 nM, 6 mM ATP and 400 μM HDAC5tide (each 2× final concentration); 30 minutes pre-incubation, 2 hours; ADP-Glo Max luminescence; read-out: SIK2 high ATP IC50 (μM) (Test Example 2)

Row | Structure (SMILES) | IC50
11 | Cc1cc(-c2ccn3nc(NC(=O)C4CC4)cc3c2)c(O[C@H]2CNC2(C)C)cn1 [Example 510, N-[5-[5-[(3S)-2,2-dimethylazetidin-3-yl]oxy-2-methyl-4-pyridyl]pyrazolo[1,5-a]pyridin-2-yl]cyclopropanecarboxamide] | 0.0614 µM
12 | Cc1cc(-c2ccn3nc(NC(=O)C4CC4)cc3c2)c(O[C@H]2CCN[C@@H](C(F)(F)F)C2)cn1 (single isomer, unassigned) [Example 446] | 0.00318 µM
13 | Cc1cc(-c2ccn3nc(Nc4cc(C)nc(N5CCCC5)n4)cc3c2)c(OCC(C)(C)O)cn1 [Example 285, 2-methyl-1-[[6-methyl-4-[2-[(6-methyl-2-pyrrolidin-1-yl-pyrimidin-4-yl)amino]pyrazolo[1,5-a]pyridin-5-yl]-3-pyridyl]oxy]propan-2-ol] | 0.0109 µM
14 | Cc1cc(-c2ccn3nc(Nc4ccc(C)nn4)cc3c2)c(OCC(C)(C)O)cn1 [Example 612, 2-methyl-1-[[6-methyl-4-[2-[(6-methylpyridazin-3-yl)amino]pyrazolo[1,5-a]pyridin-5-yl]-3-pyridyl]oxy]propan-2-ol] | 0.115 µM
15 | Cc1cc(-c2ccn3nc(NC(=O)C4CC4)cc3c2)c(O[C@H](CN)c2ccccc2)cn1 [Example 466, N-[5-[5-[(1S)-2-amino-1-phenyl-ethoxy]-2-methyl-4-pyridyl]pyrazolo[1,5-a]pyridin-2-yl]cyclopropanecarboxamide] | 0.00115 µM
16 | Cc1cncc(Nc2cc3cc(-c4cc(OC(F)F)ncc4OCC(C)(C)C#N)ccn3n2)n1 [Example 683, 3-[[6-(difluoromethoxy)-4-[2-[(6-methylpyrazin-2-yl)amino]pyrazolo[1,5-a]pyridin-5-yl]-3-pyridyl]oxy]-2,2-dimethyl-propanenitrile] | 0.000974 µM
17 | Cc1cc(-c2ccn3nc(NC(=O)C4CC4)cc3c2)c(OC[C@]2(C#N)CCN(C)C2)cn1 (single isomer, unassigned) [Example 213, (*R)—N-[5-[5-[(3-cyano-1-methyl-pyrrolidin-3-yl)methoxy]-2-methyl-4-pyridyl]pyrazolo[1,5-a]pyridin-2-yl]cyclopropanecarboxamide] | 0.0505 µM
18 | Cc1cc(-c2ccn3nc(Nc4cc(C)c(=O)n(C)n4)cc3c2)c(O[C@H]2CC[C@H](O)CC2)cn1 [Example 226, 6-((5-(5-(((1r,4r)-4-hydroxycyclohexyl)oxy)-2-methylpyridin-4-yl)pyrazolo[1,5-a]pyridin-2-yl)amino)-2,4-dimethylpyridazin-3(2H)-one] | 0.00126 µM

Now from value to molecule:

Row | IC50 | Structure (SMILES)
19 | 0.0017 µM | Cc1cc(-c2ccn3nc(Nc4cc(C)c(=O)n(C5CC5)n4)cc3c2)c(OC[C@H]2OCC[C@@H]2O)cn1 [Example 317, 2-cyclopropyl-6-[[5-[5-[[(2R,3S)-3-hydroxytetrahydrofuran-2-yl]methoxy]-2-methyl-4-pyridyl]pyrazolo[1,5-a]pyridin-2-yl]amino]-4-methyl-pyridazin-3-one]
20 | 0.00198 µM | Cc1cc(-c2ccn3nc(Nc4cc(C)nc(C)n4)cc3c2)c(O[C@H]2C[C@H](NS(C)(=O)=O)C2)cn1 [Example 580, N-[3-[[4-[2-[(2,6-dimethylpyrimidin-4-yl)amino]pyrazolo[1,5-a]pyridin-5-yl]-6-methyl-3-pyridyl]oxy]cyclobutyl]methanesulfonamide]
21 | 0.0367 µM | Cc1cc(-c2ccn3nc(NC(=O)C4CC4)cc3c2)c(OC[C@@](C)(O)C(F)(F)F)cn1 (single isomer, unassigned) [Example 189, (*R)—N-(5-(2-methyl-5-(3,3,3-trifluoro-2-hydroxy-2-methylpropoxy)pyridin-4-yl)pyrazolo[1,5-a]pyridin-2-yl)cyclopropanecarboxamide]
22 | 0.0025 µM | Cc1cc(-c2ccn3nc(Nc4cc(C)nc(C)n4)cc3c2)c(O[C@@H]2CNC[C@@H]2F)cn1 [Example 278, N-(2,6-dimethylpyrimidin-4-yl)-5-[5-[(3R,4S)-4-fluoropyrrolidin-3-yl]oxy-2-methyl-4-pyridyl]pyrazolo[1,5-a]pyridin-2-amine]
23 | 0.0401 µM | COc1cc(Nc2cc3cc(-c4cc(C)ncc4O[C@H]4CC[C@H](O)CC4)ccn3n2)cc(OC)c1C(=O)NCC(F)(F)F [Example 241, 4-[[5-[5-(4-hydroxycyclohexoxy)-2-methyl-4-pyridyl]pyrazolo[1,5-a]pyridin-2-yl]amino]-2,6-dimethoxy-N-(2,2,2-trifluoroethyl)benzamide]
24 | 0.0107 µM | Cc1cc(-c2ccn3nc(NC(=O)C4CC4)cc3c2)c(OCC(C)(N)C(F)(F)F)cn1 (single isomer, unassigned) [Example 159, (*R)—N-[5-[5-(2-amino-3,3,3-trifluoro-2-methyl-propoxy)-2-methyl-4-pyridyl]pyrazolo[1,5-a]pyridin-2-yl]cyclopropanecarboxamide]
25 | < 0.000847 µM | Cc1cc(-c2ccn3nc(Nc4cc(C)c(=O)n(C5CC5)n4)cc3c2)c(OCC(C)(C)C#N)cn1 [Example 316, 3-[[4-[2-[(1-cyclopropyl-5-methyl-6-oxo-pyridazin-3-yl)amino]pyrazolo[1,5-a]pyridin-5-yl]-6-methyl-3-pyridyl]oxy]-2,2-dimethyl-propanenitrile]
26 | 0.00837 µM | Cc1cc(-c2ccn3nc(NC(=O)[C@@H]4C[C@H]4C)cc3c2)c(OC[C@@]23CN[C@@H](CO2)C3)cn1 [Example 234, (1R,2R)-2-methyl-N-[5-[2-methyl-5-[[(1R,4R)-5-oxa-2-azabicyclo[2.2.1]heptan-4-yl]methoxy]-4-pyridyl]pyrazolo[1,5-a]pyridin-2-yl]cyclopropanecarboxamide]
27 | 0.013 µM | Cc1cc(-c2ccn3nc(NC(=O)C4CC4)cc3c2)c(OC[C@]2(C#N)CCNC2)cn1 (single isomer, unassigned) [Example 211, (*R)—N-[5-[5-[[(3R)-3-cyanopyrrolidin-3-yl]methoxy]-2-methyl-4-pyridyl]pyrazolo[1,5-a]pyridin-2-yl]cyclopropanecarboxamide]
28 | 0.0347 µM | Cc1cc(Nc2cc3cc(-c4cc(O[C@@H](C)C#N)ncc4OCC(C)(C)C#N)ccn3n2)nc(C)n1 (single isomer, unassigned) [Example 681, (*S)-3-[[6-(1-cyanoethoxy)-4-[2-[(2,6-dimethylpyrimidin-4-yl)amino]pyrazolo[1,5-a]pyridin-5-yl]-3-pyridyl]oxy]-2,2-dimethyl-propanenitrile]

— patent US20240158392A1 (Janssen Biotech, Inc., priority 2021, published 2024)
